Each structure is given as a SMILES string. Read-outs that look alike come from different tables or passages of the source. Some results are limits rather than exact numbers.

The target in assay [1] is T1, human BRD4 bromodomain II (Homo sapiens, UniProt O60885).
T1 construct: human BRD4 bromodomain II [based on Genbank NM_058243, residues 349-460]; host or cells: E. coli
Kind of assay: Bromodomain binding assay (AlphaScreen), BRD4 BDII. The essentials: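 E. coli-expressed N-terminal His6-tagged human BRD4 BDII (residues 349-460) or BDI (residues 44-170) was preincubated 30 min at room temperature with compound (10-point, 3-fold) in pH 7.5 HEPES buffer, 1% DMSO. Displacement of biotinylated tetra-acetylated H4 1-21 peptide was read by AlphaScreen, and IC50 came from curve fitting.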
A general note: Bead proximity is the source of the signal in Alpha formats.

Assay [2] concerns human SKM-1 acute myeloid leukemia cells. Kind of assay: SKM-1 antiproliferation cell-based assay (ATPlite). Conditions: Homo sapiens. Summed up:
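Log-phase cells in RPMI 1640/15% FBS were seeded at 34722 cells/mL and exposed for 4 days to nine-concentration DMSO serial dilutions in triplicate. Viability was read as ATP luminescence (ATPlite 1step), and IC50 values came from variable-slope non-linear regression.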

[3] abbreviates: AlphaScreen assay, Table C2, read-out: BRD4 BDII IC50.
Setting [4] is: SKM-1, 96 h, SKM-1 antiproliferation assay, 4 days, Table C2.
Where [5] appears, read: BRD4 BDII AlphaScreen assay, read-out: BRD4 BD2 IC50.
[6] abbreviates: SKM-1, SKM-1 antiproliferation assay.

Regarding `COCc1ncc(-c2cc(F)cc(-c3ccc(N4CCN(C)C4=O)c(Cl)c3)c2O)cc1N1CCNCC1` [Example 399, 1-(3-chloro-5′-fluoro-2′-hydroxy-3′-(6-(methoxymethyl)-5-(piperazin-1-yl)pyridin-3-yl)-[1,1′-biphenyl]-4-yl)-3-methylimidazolidin-2-one], in assay [1] (setting [3]), the IC50 lay in the range of 1 to 10 nM. Also, the GI50 in assay [2] (setting [4]) was in the range of 30 to 300 nM.
For `CN1CCN(c2ccc(-c3cccc(-c4cc(CN)cc(N5CCNCC5)c4)c3O)cc2Cl)C1=O` [Example 326, 1-(3″-(aminomethyl)-3-chloro-2′-hydroxy-5″-(piperazin-1-yl)-[1,1′:3′,1″-terphenyl]-4-yl)-3-methylimidazolidin-2-one] the same measures were 10 to 100 nM and 300 to 3000 nM.
For `Cn1ccn(-c2ccc(-c3cc(F)cc(-c4ccnc(N5CCN(CCCN)CC5)c4)c3O)cc2Cl)c1=O` [Example 620, 1-(3′-(2-(4-(3-aminopropyl)piperazin-1-yl)pyridin-4-yl)-3-chloro-5′-fluoro-2′-hydroxy-[1,1′-biphenyl]-4-yl)-3-methyl-1H-imidazol-2(3H)-one] the same measures were 0.01 to 1 nM and 30 to 300 nM.
For `Cn1ccn(-c2ccc(-c3cc(F)cc(-c4ccc(Cl)c(N5CCN(C(C)(C)C)CC5)c4)c3O)cc2Cl)c1=O` [Example 809, 1-(3″-(4-(tert-butyl)piperazin-1-yl)-3,4″-dichloro-5′-fluoro-2′-hydroxy-[1,1′:3′,1″-terphenyl]-4-yl)-3-methyl-1H-imidazol-2(3H)-one] the same measures were 1 to 10 nM and 0.3 to 30 nM.
In the case of `CC(=O)Nc1cnc(-c2cc(F)cc(-c3cccc(N4CCN(C(C)(C)C)CC4)c3)c2O)nc1` [Example 894], the IC50 in assay [1] (setting [5]) is > 100 nM. This molecule also showed a GI50 in assay [2] (setting [6]) of 300 to 3000 nM.
As to `Cn1ccn(-c2ccc(-c3cc(F)cc(-c4ccnc(N5CCN[C@H](CC(=O)O)C5)c4)c3O)cc2Cl)c1=O` [Example 653], the IC50 in assay [1] (setting [3]) fell in the range of 0.01 to 1 nM. Besides, in assay [2] (setting [4]), the concentration for 50% growth inhibition (GI50) was in the range of 300 to 3000 nM.
The like results for `CC(=O)NCc1cc(-c2cccc(-c3ccc(N4CCN(C)C4=O)c(Cl)c3)c2O)cc(N2CCNCC2)c1` [Example 327, N-((3″-chloro-2′-hydroxy-4″-(3-methyl-2-oxoimidazolidin-1-yl)-5-(piperazin-1-yl)-[1,1′:3′,1″-terphenyl]-3-yl)methyl)acetamide] were, in that order, 1 to 10 nM and 30 to 300 nM.
With `COCC(C)(C)N1CCN(c2cc(-c3cc(F)cc(-c4ccc(-n5ccn(C)c5=O)c(Cl)c4)c3O)cnc2C)CC1` [Example 856], in assay [1] (setting [5]), the IC50 fell in the range of 1 to 10 nM. The GI50 in assay [2] (setting [6]) was 0.3 to 30 nM.
For `Cc1cc(-c2ccc(-n3ccn(C)c3=O)c(C)c2)c(O)c(-c2cnc(C)c(N3CCN(C(C)(C)C)CC3)c2)n1` [Example 1019, 1-(4-(5′-(4-(tert-Butyl)piperazin-1-yl)-3-hydroxy-6,6′-dimethyl-[2,3′-bipyridin]-4-yl)-2-methylphenyl)-3-methyl-1,3-dihydro-2H-imidazol-2-one] the same measures were 1 to 10 nM and 0.3 to 30 nM.
Consider `CCc1cc(-c2ccnc(N3CCNCC3)c2)c(O)c(-c2ccc(N3CCN(C)C3=O)c(Cl)c2)c1` [Example 311, l-(3-chloro-5′-ethyl-2′-hydroxy-3′-(2-(piperazin-1-yl)pyridin-4-yl)-[1,1′-biphenyl]-4-yl)-3-methylimidazolidin-2-one], for which the IC50 in assay [1] (setting [3]) was in the range of 1 to 10 nM. This molecule also returned a GI50 in assay [2] (setting [4]) of 300 to 3000 nM.
The like results for `COCC(C)(C)N1CCN(c2cccc(-c3cc(F)cc(-c4ccc(-n5ccn(C)c5=O)c(Cl)c4)c3O)c2)CC1` [Example 830, 1-(3-chloro-5′-fluoro-2′-hydroxy-3″-(4-(1-methoxy-2-methylpropan-2-yl)piperazin-1-yl)-[1,1′:3′,1″-terphenyl]-4-yl)-3-methyl-1H-imidazol-2(3H)-one] were, in that order, 1 to 10 nM and 0.3 to 30 nM.
For `C[C@@H]1CN(c2cncc(-c3cc(Cl)cc(-c4ccc(-n5ccn(C)c5=O)c(Cl)c4)c3O)c2)CCN1` [Example 529, (R)-1-(3,5′-dichloro-2′-hydroxy-3′-(5-(3-methylpiperazin-1-yl)pyridin-3-yl)-[1,1′-biphenyl]-4-yl)-3-methyl-1H-imidazol-2(3H)-one] the same measures were 1 to 10 nM and 0.3 to 30 nM.
The like results for `C[C@@H]1CN(c2cc(-c3cc(F)cc(-c4ccc(-n5ccn(C)c5=O)c(Cl)c4)c3O)cc3cccnc23)CCN1` [Example 591, (R)-1-(3-chloro-5′-fluoro-2′-hydroxy-3′-(8-(3-methylpiperazin-1-yl)quinolin-6-yl)-[1,1′-biphenyl]-4-yl)-3-methyl-1H-imidazol-2(3H)-one] were, in that order, 0.01 to 1 nM and 0.3 to 30 nM.
Regarding `Cn1ccn(-c2ccc(-c3cc(F)cc(-c4cc(N5CCOCC5)c5cn[nH]c5c4)c3O)cc2Cl)c1=O` [Example 590, 1-(3-chloro-5′-fluoro-2′-hydroxy-3′-(4-morpholino-1H-indazol-6-yl)-[1,1′-biphenyl]-4-yl)-3-methyl-1H-imidazol-2(3H)-one], the IC50 in assay [1] (setting [3]) was in the range of 1 to 10 nM. This molecule also had a GI50 in assay [2] (setting [4]) of 30 to 300 nM.
With `Cn1ccn(-c2ccc(-c3cc(F)cc(-c4ccnc(C5CCCNC5)c4)c3O)cc2Cl)c1=O` (stereo not shown) [Example 654, 1-(3-chloro-5′-fluoro-2′-hydroxy-3′-(2-(piperidin-3-yl)pyridin-4-yl)-[1,1′-biphenyl]-4-yl)-3-methyl-1H-imidazol-2(3H)-one], the IC50 in assay [1] (setting [3]) was in the range of 0.01 to 1 nM. This molecule had a GI50 in assay [2] (setting [4]) of 0.3 to 30 nM.
The like results for `CC1CN(c2cc(-c3cccc(-c4ccc(N5CCCC5=O)c(Cl)c4)c3O)ccn2)CC(C)N1` (stereo not shown) [Example 267, 1-(3-chloro-3′-(2-(3,5-dimethylpiperazin-1-yl)pyridin-4-yl)-2′-hydroxy-[1,1′-biphenyl]-4-yl)pyrrolidin-2-one] were, in that order, 1 to 10 nM and 30 to 300 nM.
For `Cn1ccn(-c2ccc(-c3cc(F)cc(-c4ccnc(N5C[C@@H](N)[C@H](O)C5)c4)c3O)cc2Cl)c1=O` [Example 490, 1-(3′-(2-((3R,4R)-3-amino-4-hydroxypyrrolidin-1-yl)pyridin-4-yl)-3-chloro-5′-fluoro-2′-hydroxy-[1,1′-biphenyl]-4-yl)-3-methyl-1H-imidazol-2(3H)-one] the same measures were 0.01 to 1 nM and 0.3 to 30 nM.
Take `Cc1cc(-c2ccc(-n3ccn(C)c3=O)c(Cl)c2)c(O)c(-c2cccc(N3CCC4(CCCN4C(C)C)C3)c2)n1` (stereo not shown) [Example 981, 1-(2-chloro-4-(3-hydroxy-2-(3-(1-isopropyl-1,7-diazaspiro[4.4]nonan-7-yl)phenyl)-6-methylpyridin-4-yl)phenyl)-3-methyl-1H-imidazol-2(3H)-one]: in assay [1] (setting [5]), the concentration for half-maximal inhibition (IC50) was in the range of 1 to 10 nM. Also, the concentration for 50% growth inhibition (GI50) in assay [2] (setting [6]) is 0.3 to 30 nM.
For `CN1CCN(c2c(F)cc(-c3cc(F)cc(-c4ccnc(N5CCNCC5)c4)c3O)cc2F)C1=O` [Example 384, 1-methyl-3-(3,5,5′-trifluoro-2′-hydroxy-3′-(2-(piperazin-1-yl)pyridin-4-yl)-[1,1′-biphenyl]-4-yl)imidazolidin-2-one], the IC50 in assay [1] (setting [3]) lay within 10 to 100 nM. The molecule further gave a GI50 in assay [2] (setting [4]) of 300 to 3000 nM.
The like results for `Cn1ccn(-c2ccc(-c3cc(F)cc(-c4ccnc(N5CC[C@@H](O)C5)c4)c3O)cc2Cl)c1=O` [Example 627, (R)-1-(3-chloro-5′-fluoro-2′-hydroxy-3′-(2-(3-hydroxypyrrolidin-1-yl)pyridin-4-yl)-[1,1′-biphenyl]-4-yl)-3-methyl-1H-imidazol-2(3H)-one] were, in that order, 0.01 to 1 nM and 30 to 300 nM.

Usually IC50 stands for the concentration that inhibits the measured activity by half. Usually GI50 stands for the concentration giving 50% growth inhibition. Low values mean greater sensitivity of the cells, high ones lower sensitivity of the cells.
